In general, MIC refers to the smallest concentration in the dilution series that meets the test's criterion for growth inhibition.

SMILES strings stand for the structures.

Assay [1] relates to Methicillin Resistant Staphylococcus aureus strain USA 200. Nature of the assay: Minimum inhibitory concentration (MIC), CLSI broth micro-dilution, S. aureus. The class given is cell-based. The note with it: Staphylococcus aureus, MRSA / USA200; Table 6; MRSA USA 200; cation adjusted Mueller Hinton Broth + 0.002% Tween-80; 35° C., 22 hours. The procedure, abridged: (§1)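 Colonies grown 20 h at 35° C on Trypticase Soy agar (MRSA) or Luria agar (E. coli) were suspended in cation-adjusted Mueller Hinton broth with 0.002% Tween-80. Suspensions were added at OD600 0.0005 to 10-point twofold compound dilutions, then incubated 22 h at 35° C.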
Background: Dilution methods test growth across graded concentrations, often in twofold steps.

Assay [2] concerns Escherichia coli ATCC 25922. Nature of the assay: Minimum inhibitory concentration (MIC), CLSI broth micro-dilution, E. coli. It is filed as cell-based. The note with it: Escherichia coli, ATCC25922, 22 h, Table 6, cation adjusted Mueller Hinton Broth + 0.002% Tween-80, 35° C. The procedure, abridged: as §1

For `CCCCCCCc1ccc(C(=O)N[C@H](CCN)C(=O)N(C)[C@@H]2C(=O)N[C@@H](C)C(=O)N[C@H](C(=O)NCC#N)Cc3ccc(OCCN)c(c3)-c3cc2ccc3OCCN)c(C)c1` (racemic) [Compound 456, rac-(8S,11S,14S)-3,18-bis(2-aminoethoxy)-N-(cyanomethyl)-11-methyl-14-[methyl-[rac-(2R)-4-amino-2-[(4-heptyl-2-methyl-benzoyl)amino]butanoyl]amino]-10,13-dioxo-9,12-diazatricyclo[13.3.1.12,6]icosa-1(18),2(20),3,5,15(19),16-hexaene-8-carboxamide], the MIC in assay [1] stood at 0.56 µM; in assay [2] it was 3.3 µM.

Turning to `CCCCc1ccc(Oc2nc(C)c(C(=O)N[C@@H](CCN)C(=O)N(C)[C@@H]3C(=O)N[C@@H](C)C(=O)N[C@H](C(=O)NCC#N)Cc4ccc(OCCN)c(c4)-c4cc3ccc4OCCN)c(C)n2)cc1CCCC` (racemic) [Compound 355, rac-(8S,11S,14S)-3,18-bis(2-aminoethoxy)-N-(cyanomethyl)-11-methyl-14-[methyl-[rac-(2S)-4-amino-2-[[2-(3,4-dibutylphenoxy)-4,6-dimethyl-pyrimidine-5-carbonyl]amino]butanoyl]amino]-10,13-dioxo-9,12-diazatricyclo[13.3.1.12,6]icosa-1(18),2(20),3,5,15(19),16-hexaene-8-carboxamide], the MIC in assay [1] worked out at 0.094 µM; in assay [2] it was 4 µM.

Consider `Cc1nc(C#Cc2ccc(C(C)(C)C)cc2)nc(C)c1C(=O)N[C@@H](CCN)C(=O)N(C)[C@@H]1C(=O)N[C@@H](C)C(=O)N[C@H](C(=O)NCC#N)Cc2ccc(OCCN)c(c2)-c2cc1ccc2OCCN` (racemic) [Compound 311, rac-(8S,11S,14S)-3,18-bis(2-aminoethoxy)-N-(cyanomethyl)-11-methyl-14-[methyl-[rac-(2S)-4-amino-2-[[2-[2-(4-tert-butylphenyl)ethynyl]-4,6-dimethyl-pyrimidine-5-carbonyl]amino]butanoyl]amino]-10,13-dioxo-9,12-diazatricyclo[13.3.1.12,6]icosa-1(18),2(20),3,5,15(19),16-hexaene-8-carboxamide], for which the MIC in assay [1] was found to be 1 µM; in assay [2], 8.2 µM.

As to `Cc1cc(-c2ccc(C(C)(C)C)cc2N)nc(C)c1C(=O)N[C@@H](CCN)C(=O)N(C)[C@@H]1C(=O)N[C@@H](C)C(=O)N[C@H](C(=O)NCC#N)Cc2ccc(OCCN)c(c2)-c2cc1ccc2OCCN` (racemic) [Compound 369, rac-(8S,11S,14S)-3,18-bis(2-aminoethoxy)-N-(cyanomethyl)-11-methyl-14-[methyl-[rac-(2S)-4-amino-2-[[6-(2-amino-4-tert-butyl-phenyl)-2,4-dimethyl-pyridine-3-carbonyl]amino]butanoyl]amino]-10,13-dioxo-9,12-diazatricyclo[13.3.1.12,6]icosa-1(18),2(20),3,5,15(19),16-hexaene-8-carboxamide], the MIC was found to be 0.047 µM in assay [1] and 0.75 µM in assay [2].

For the compound `CCC[C@H](NC(=O)c1c(C)nc(-c2ccc(C(C)(C)C)cc2)nc1C)C(=O)N[C@@H](CCN)C(=O)N(C)[C@@H]1C(=O)N[C@@H](C)C(=O)N[C@H](C(=O)NCC#N)Cc2ccc(OCCN)c(c2)-c2cc1ccc2OCCN` (racemic) [Compound 469, rac-(8S,11S,14S)-3,18-bis(2-aminoethoxy)-N-(cyanomethyl)-11-methyl-14-[methyl-[rac-(2S)-4-amino-2-[[rac-(2S)-2-[[2-(4-tert-butylphenyl)-4,6-dimethyl-pyrimidine-5-carbonyl]amino]pentanoyl]amino]butanoyl]amino]-10,13-dioxo-9,12-diazatricyclo[13.3.1.12,6]icosa-1(18),2(20),3,5,15(19),16-hexaene-8-carboxamide], the values for the MIC in assay [1] and in assay [2] were 0.13 µM and 6 µM, respectively.

As for `Cc1nc(-c2cccc(OC(C)C)c2)ncc1C(=O)N[C@@H](CCN)C(=O)N(C)[C@@H]1C(=O)N[C@@H](C)C(=O)N[C@H](C(=O)NCC#N)Cc2ccc(OCCN)c(c2)-c2cc1ccc2OCCN` (racemic) [Compound 251, rac-(8S,11S,14S)-3,18-bis(2-aminoethoxy)-N-(cyanomethyl)-11-methyl-14-[methyl-[rac-(2S)-4-amino-2-[[2-(3-isopropoxyphenyl)-4-methyl-pyrimidine-5-carbonyl]amino]butanoyl]amino]-10,13-dioxo-9,12-diazatricyclo[13.3.1.12,6]icosa-1(18),2(20),3,5,15(19),16-hexaene-8-carboxamide], the results for the MIC in assay [1] and in assay [2] were 0.067 µM and 1.1 µM, respectively.

For `Cc1nc(-c2ccc(OC3CCCCC3)cc2)nc(C)c1C(=O)N[C@@H](CNC(N)=O)C(=O)N(C)[C@@H]1C(=O)N[C@@H](C)C(=O)N[C@H](C(=O)NCC#N)Cc2ccc(OCCN)c(c2)-c2cc1ccc2OCCN` [Compound 499, (8S,11S,14S)-3,18-bis(2-aminoethoxy)-N-(cyanomethyl)-14-[[(2S)-2-[[2-[4-(cyclohexoxy)phenyl]-4,6-dimethyl-pyrimidine-5-carbonyl]amino]-3-ureido-propanoyl]-methyl-amino]-11-methyl-10,13-dioxo-9,12-diazatricyclo[13.3.1.12,6]icosa-1(18),2(20),3,5,15(19),16-hexaene-8-carboxamide], the figures for the MIC in assay [1] and in assay [2] were 0.063 µM and 1.5 µM, respectively.

Turning to `Cc1nc(-c2ccc(S(F)(F)(F)(F)F)cc2)ncc1C(=O)N[C@@H](CCN)C(=O)N(C)[C@@H]1C(=O)N[C@@H](C)C(=O)N[C@H](C(=O)NCC#N)Cc2ccc(OCCN)c(c2)-c2cc1ccc2OCCN` (racemic) [Compound 225, rac-(8S,11S,14S)-3,18-bis(2-aminoethoxy)-N-(cyanomethyl)-11-methyl-14-[methyl-[rac-(2S)-4-amino-2-[[4-methyl-2-[4-(pentafluoro-lambda6-sulfanyl)phenyl]pyrimidine-5-carbonyl]amino]butanoyl]amino]-10,13-dioxo-9,12-diazatricyclo[13.3.1.12,6]icosa-1(18),2(20),3,5,15(19),16-hexaene-8-carboxamide], the MIC stood at 0.016 µM in assay [1] and 0.19 µM in assay [2].

Regarding `Cc1nc(-c2ccc(C(C)(C)C)cc2)c(N(C)C)cc1C(=O)N[C@@H](CCN)C(=O)N(C)[C@@H]1C(=O)N[C@@H](C)C(=O)N[C@H](C(=O)NCC#N)Cc2ccc(OCCN)c(c2)-c2cc1ccc2OCCN` (racemic) [Compound 408, rac-(8S,11S,14S)-3,18-bis(2-aminoethoxy)-N-(cyanomethyl)-11-methyl-14-[methyl-[rac-(2S)-4-amino-2-[[6-(4-tert-butylphenyl)-5-(dimethylamino)-2-methyl-pyridine-3-carbonyl]amino]butanoyl]amino]-10,13-dioxo-9,12-diazatricyclo[13.3.1.12,6]icosa-1(18),2(20),3,5,15(19),16-hexaene-8-carboxamide], the MIC in assay [1] was found to be 0.023 µM; in assay [2], 0.38 µM.

As to `CCCCCOc1ccc(-c2nc(C)c(C(=O)N[C@@H](CCN)C(=O)N(C)[C@@H]3C(=O)N[C@@H](C)C(=O)N[C@H](C(=O)NCC#N)Cc4ccc(OCCN)c(c4)-c4cc3ccc4O)c(C)n2)cc1` (racemic) [Compound 536, rac-(8S,11S,14S)-3-(2-aminoethoxy)-N-(cyanomethyl)-18-hydroxy-11-methyl-14-[methyl-[rac-(2S)-4-amino-2-[[4,6-dimethyl-2-(4-pentoxyphenyl)pyrimidine-5-carbonyl]amino]butanoyl]amino]-10,13-dioxo-9,12-diazatricyclo[13.3.1.12,6]icosa-1(18),2(20),3,5,15(19),16-hexaene-8-carboxamide], the MIC in assay [1] is 0.016 µM; in assay [2] it was 0.13 µM.

With `Cc1nc(N2CC(C(C)(C)C)C2)nc(C)c1C(=O)N[C@@H](CCN)C(=O)N(C)[C@@H]1C(=O)N[C@@H](C)C(=O)N[C@H](C(=O)NCC#N)Cc2ccc(OCCN)c(c2)-c2cc1ccc2OCCN` (racemic) [Compound 316, rac-(8S,11S,14S)-3,18-bis(2-aminoethoxy)-N-(cyanomethyl)-11-methyl-14-[methyl-[rac-(2S)-4-amino-2-[[2-(3-tert-butylazetidin-1-yl)-4,6-dimethyl-pyrimidine-5-carbonyl]amino]butanoyl]amino]-10,13-dioxo-9,12-diazatricyclo[13.3.1.12,6]icosa-1(18),2(20),3,5,15(19),16-hexaene-8-carboxamide], the MIC is 0.38 µM in assay [1] and 1.5 µM in assay [2].

Take `Cc1nc2cc(-c3ccc(C(C)(C)C)cc3)ccn2c1C(=O)N[C@@H](CCN)C(=O)N(C)[C@@H]1C(=O)N[C@@H](C)C(=O)N[C@H](C(=O)NCC#N)Cc2ccc(OCCN)c(c2)-c2cc1ccc2OCCN` (racemic) [Compound 393, rac-(8S,11S,14S)-3,18-bis(2-aminoethoxy)-N-(cyanomethyl)-11-methyl-14-[methyl-[rac-(2S)-4-amino-2-[[7-(4-tert-butylphenyl)-2-methyl-imidazo[1,2-a]pyridine-3-carbonyl]amino]butanoyl]amino]-10,13-dioxo-9,12-diazatricyclo[13.3.1.12,6]icosa-1(18),2(20),3,5,15(19),16-hexaene-8-carboxamide]: the MIC was 0.021 µM in assay [1] and 8.2 µM in assay [2].

`CCCCCc1ccc(-c2nc(C)c(C(=O)N[C@@H](CCN)C(=O)N(C)[C@@H]3C(=O)N[C@@H](C)C(=O)N[C@H](C(=O)NCC#N)Cc4ccc(OCCN)c(c4)-c4cc3ccc4OCCN)c(C)n2)cc1` (racemic) [Compound 513, rac-(8S,11S,14S)-3,18-bis(2-aminoethoxy)-N-(cyanomethyl)-11-methyl-14-[methyl-[rac-(2S)-4-amino-2-[[4,6-dimethyl-2-(4-pentylphenyl)pyrimidine-5-carbonyl]amino]butanoyl]amino]-10,13-dioxo-9,12-diazatricyclo[13.3.1.12,6]icosa-1(18),2(20),3,5,15(19),16-hexaene-8-carboxamide]: the MIC in assay [1] came out at 0.0061 µM; in assay [2], 0.097 µM.

For the origin of these results see patent US20260274892A1, “MACROCYCLIC BROAD SPECTRUM ANTIBIOTICS” (RQx Pharmaceuticals, Inc., priority 2017, published 2026).
